ChEMBL document CHEMBL1201862, “PubChem BioAssay data set” (2004)
Active and inactive are the calls of the source.

Experiments:
[1] = biological target: T1, Sentrin-specific protease 8 (Homo sapiens, UniProt Q96LD8); experiment: inhibition of human SENP8 cleavage activity – biochemical, luminescence, SAR follow-up (AID 504501); assay type: functional
T1 sequence (Q96LD8 whole entry): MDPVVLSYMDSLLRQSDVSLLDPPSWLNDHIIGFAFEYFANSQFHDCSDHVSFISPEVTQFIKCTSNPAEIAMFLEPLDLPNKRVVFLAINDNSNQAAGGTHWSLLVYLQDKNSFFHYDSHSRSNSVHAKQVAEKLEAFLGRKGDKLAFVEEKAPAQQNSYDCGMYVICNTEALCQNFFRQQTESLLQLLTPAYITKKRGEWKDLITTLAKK

[2] = biological target: T2, Caspase-3 (Homo sapiens, UniProt P42574); experiment: SAR Analysis of small molecule inhibitors of Sentrin-specific proteases (SENPs) using a Caspase-3 Selectivity assay. [Related pubchem assays (depositor defined):AID2540, AID2599, AID434973, AID489001]; assay type: functional
T2 sequence (P42574 whole entry): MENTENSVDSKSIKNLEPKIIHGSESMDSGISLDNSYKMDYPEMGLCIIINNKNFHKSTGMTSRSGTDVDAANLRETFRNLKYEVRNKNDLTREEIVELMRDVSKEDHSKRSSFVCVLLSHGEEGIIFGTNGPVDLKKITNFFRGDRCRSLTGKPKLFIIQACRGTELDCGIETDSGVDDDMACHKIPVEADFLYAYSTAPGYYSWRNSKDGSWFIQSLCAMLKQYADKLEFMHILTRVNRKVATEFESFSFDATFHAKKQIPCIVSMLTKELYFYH

[3] = biological target: T3, Sentrin-specific protease 6 (Homo sapiens, UniProt Q9GZR1); experiment: SAR Analysis of small molecule inhibitors of Sentrin-specific protease 6 (SENP6) using a Luminescent assay. [Related pubchem assays (depositor defined):AID2582, AID2599]; assay type: functional
T3 sequence (Q9GZR1 whole entry): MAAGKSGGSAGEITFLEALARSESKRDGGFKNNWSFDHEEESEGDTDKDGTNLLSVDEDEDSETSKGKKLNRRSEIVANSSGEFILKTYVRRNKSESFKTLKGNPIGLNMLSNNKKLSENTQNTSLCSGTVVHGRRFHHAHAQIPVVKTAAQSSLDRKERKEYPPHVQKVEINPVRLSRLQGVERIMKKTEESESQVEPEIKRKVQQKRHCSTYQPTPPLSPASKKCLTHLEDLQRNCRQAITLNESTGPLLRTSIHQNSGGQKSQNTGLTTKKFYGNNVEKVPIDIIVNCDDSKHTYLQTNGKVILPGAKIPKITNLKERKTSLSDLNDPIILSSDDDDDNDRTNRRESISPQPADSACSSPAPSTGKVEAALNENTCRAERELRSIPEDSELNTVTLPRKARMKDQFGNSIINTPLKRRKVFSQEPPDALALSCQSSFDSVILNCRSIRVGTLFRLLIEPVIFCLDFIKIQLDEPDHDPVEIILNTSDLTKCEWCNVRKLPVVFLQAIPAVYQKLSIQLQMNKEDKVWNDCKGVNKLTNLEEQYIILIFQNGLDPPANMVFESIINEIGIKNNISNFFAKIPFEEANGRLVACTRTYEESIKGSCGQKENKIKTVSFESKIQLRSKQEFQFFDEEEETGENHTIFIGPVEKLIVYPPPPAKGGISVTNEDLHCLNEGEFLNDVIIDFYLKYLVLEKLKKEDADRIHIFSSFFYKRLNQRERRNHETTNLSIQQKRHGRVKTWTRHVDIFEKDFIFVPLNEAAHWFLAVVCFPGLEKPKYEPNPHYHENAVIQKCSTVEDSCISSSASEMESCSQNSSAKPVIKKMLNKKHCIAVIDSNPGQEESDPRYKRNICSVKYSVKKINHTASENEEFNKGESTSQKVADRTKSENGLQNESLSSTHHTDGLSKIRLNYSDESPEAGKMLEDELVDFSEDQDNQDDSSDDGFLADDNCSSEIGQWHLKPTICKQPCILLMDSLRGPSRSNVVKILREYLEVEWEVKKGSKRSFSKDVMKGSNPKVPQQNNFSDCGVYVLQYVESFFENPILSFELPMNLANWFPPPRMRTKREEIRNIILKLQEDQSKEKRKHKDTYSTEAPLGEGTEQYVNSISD

[4] = biological target: T4, Sentrin-specific protease 7 (Homo sapiens, UniProt Q9BQF6); experiment: inhibition of human SENP7 cleavage activity – biochemical, luminescence, SAR follow-up (AID 504497); assay type: functional
T4 sequence (Q9BQF6 whole entry): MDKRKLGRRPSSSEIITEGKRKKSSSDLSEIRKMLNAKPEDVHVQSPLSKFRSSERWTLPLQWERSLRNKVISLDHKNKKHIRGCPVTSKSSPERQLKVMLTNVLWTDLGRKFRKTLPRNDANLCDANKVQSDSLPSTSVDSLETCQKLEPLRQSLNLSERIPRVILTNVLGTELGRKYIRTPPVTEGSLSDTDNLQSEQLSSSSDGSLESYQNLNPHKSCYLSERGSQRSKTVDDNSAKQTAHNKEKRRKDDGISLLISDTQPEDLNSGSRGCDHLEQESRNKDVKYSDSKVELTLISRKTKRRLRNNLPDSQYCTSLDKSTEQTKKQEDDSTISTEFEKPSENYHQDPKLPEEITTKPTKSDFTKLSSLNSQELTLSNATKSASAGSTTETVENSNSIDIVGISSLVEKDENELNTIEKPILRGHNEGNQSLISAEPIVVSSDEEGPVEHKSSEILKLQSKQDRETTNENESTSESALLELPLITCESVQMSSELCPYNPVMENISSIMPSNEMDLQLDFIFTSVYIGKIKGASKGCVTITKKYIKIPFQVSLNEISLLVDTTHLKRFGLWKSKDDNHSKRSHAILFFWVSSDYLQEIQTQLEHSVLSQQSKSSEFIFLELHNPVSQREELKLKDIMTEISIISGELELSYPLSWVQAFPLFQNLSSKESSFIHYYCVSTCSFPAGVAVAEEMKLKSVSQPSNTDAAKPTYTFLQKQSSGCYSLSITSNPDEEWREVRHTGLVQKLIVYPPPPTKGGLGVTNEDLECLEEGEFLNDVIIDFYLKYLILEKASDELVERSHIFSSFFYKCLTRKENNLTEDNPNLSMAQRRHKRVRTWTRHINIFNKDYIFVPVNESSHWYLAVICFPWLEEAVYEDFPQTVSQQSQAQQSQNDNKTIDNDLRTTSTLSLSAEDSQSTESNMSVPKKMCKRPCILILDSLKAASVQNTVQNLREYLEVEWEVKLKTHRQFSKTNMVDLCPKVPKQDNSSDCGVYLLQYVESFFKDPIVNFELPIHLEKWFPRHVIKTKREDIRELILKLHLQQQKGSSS

[5] = viability of uninfected HEp-2 cells – cell-based, HTS, cytotoxicity control for RSV inhibitor project, dose response (AID 2410); assay type: functional; conditions: human respiratory syncytial virus
[6] = viability of PTEN-deleted HCT116 cells – cell-based, HCT116 PTEN knockout, dose response (AID 1047); assay type: functional;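 note: HCT116 colon tumor cells with PTEN knocked out; cells exposed to compound for 60 hours before readout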
[7] = viability of HCT116 lacking mutant beta-catenin – cell-based, human colon tumor, dose response (AID 1045); assay type: functional;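 note: HCT116 colon tumor cells with beta catenin knocked out; cells exposed to compound for 60 hours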
[8] = tested on: CHO; experiment: CHO cell viability loss, potency – luminescence, cytotoxicity control for TLR9-MyD88 binding inhibitor project, dose response (AID 588339); assay type: functional, cell-based, hamster; conditions: Cricetulus griseus;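 note: CHO cells stably coexpressing TLR9 and MyD88 fusions from primary screen; compound exposure lasted 48 hours before viability readout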
[9] = biological target: Beta Lactamase (Pseudomonas aeruginosa, UniProt Q932Y6); experiment: BLA reporter interference, concentration series – BLA reporter cells, FRET fluorescence, artefact control for TLR9-MyD88 binding inhibitor project, dose response (AID 588341); assay type: cell-based;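 note: cell based assay in CHO-K1 cells stably expressing beta-lactamase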
Sequence of Beta Lactamase (Q932Y6 whole entry, the tested form may be a part): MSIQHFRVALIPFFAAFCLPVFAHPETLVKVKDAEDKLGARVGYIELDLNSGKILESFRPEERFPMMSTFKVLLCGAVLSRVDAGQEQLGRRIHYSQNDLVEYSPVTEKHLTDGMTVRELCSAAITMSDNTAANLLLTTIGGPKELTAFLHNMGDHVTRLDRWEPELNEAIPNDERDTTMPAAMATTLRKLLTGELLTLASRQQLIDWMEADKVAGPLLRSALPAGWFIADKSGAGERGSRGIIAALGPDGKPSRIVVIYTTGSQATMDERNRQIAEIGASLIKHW

[10] = biological target: LIM domain kinase 1 (Homo sapiens, UniProt P53667); experiment: Navigating the Kinome. Panel member name: LIMK1; assay type: functional
Sequence of LIM domain kinase 1 (P53667 whole entry, the tested form may be a part): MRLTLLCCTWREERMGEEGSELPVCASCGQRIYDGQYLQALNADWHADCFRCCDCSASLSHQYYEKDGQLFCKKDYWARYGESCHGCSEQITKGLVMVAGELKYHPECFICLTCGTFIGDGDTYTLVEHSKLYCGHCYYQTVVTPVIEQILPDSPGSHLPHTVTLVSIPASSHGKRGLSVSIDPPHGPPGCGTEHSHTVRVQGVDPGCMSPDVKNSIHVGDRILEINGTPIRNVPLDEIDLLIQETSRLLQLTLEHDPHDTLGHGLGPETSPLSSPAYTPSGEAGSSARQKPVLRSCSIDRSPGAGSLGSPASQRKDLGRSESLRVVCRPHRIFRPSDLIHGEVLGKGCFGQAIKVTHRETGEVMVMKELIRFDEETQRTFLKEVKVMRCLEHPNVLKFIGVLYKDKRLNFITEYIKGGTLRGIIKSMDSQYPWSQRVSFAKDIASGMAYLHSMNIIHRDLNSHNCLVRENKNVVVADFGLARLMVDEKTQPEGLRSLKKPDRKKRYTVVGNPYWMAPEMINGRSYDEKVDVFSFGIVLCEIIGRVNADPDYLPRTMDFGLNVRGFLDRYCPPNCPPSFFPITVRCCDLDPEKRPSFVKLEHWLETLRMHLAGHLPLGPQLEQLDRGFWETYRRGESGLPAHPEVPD

[11] = biological target: Hepatocyte growth factor receptor (Homo sapiens, UniProt P08581); assay type: functional;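 note: kinase panel profiling across the kinome, with MET as the panel member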
Sequence of Hepatocyte growth factor receptor (P08581 whole entry): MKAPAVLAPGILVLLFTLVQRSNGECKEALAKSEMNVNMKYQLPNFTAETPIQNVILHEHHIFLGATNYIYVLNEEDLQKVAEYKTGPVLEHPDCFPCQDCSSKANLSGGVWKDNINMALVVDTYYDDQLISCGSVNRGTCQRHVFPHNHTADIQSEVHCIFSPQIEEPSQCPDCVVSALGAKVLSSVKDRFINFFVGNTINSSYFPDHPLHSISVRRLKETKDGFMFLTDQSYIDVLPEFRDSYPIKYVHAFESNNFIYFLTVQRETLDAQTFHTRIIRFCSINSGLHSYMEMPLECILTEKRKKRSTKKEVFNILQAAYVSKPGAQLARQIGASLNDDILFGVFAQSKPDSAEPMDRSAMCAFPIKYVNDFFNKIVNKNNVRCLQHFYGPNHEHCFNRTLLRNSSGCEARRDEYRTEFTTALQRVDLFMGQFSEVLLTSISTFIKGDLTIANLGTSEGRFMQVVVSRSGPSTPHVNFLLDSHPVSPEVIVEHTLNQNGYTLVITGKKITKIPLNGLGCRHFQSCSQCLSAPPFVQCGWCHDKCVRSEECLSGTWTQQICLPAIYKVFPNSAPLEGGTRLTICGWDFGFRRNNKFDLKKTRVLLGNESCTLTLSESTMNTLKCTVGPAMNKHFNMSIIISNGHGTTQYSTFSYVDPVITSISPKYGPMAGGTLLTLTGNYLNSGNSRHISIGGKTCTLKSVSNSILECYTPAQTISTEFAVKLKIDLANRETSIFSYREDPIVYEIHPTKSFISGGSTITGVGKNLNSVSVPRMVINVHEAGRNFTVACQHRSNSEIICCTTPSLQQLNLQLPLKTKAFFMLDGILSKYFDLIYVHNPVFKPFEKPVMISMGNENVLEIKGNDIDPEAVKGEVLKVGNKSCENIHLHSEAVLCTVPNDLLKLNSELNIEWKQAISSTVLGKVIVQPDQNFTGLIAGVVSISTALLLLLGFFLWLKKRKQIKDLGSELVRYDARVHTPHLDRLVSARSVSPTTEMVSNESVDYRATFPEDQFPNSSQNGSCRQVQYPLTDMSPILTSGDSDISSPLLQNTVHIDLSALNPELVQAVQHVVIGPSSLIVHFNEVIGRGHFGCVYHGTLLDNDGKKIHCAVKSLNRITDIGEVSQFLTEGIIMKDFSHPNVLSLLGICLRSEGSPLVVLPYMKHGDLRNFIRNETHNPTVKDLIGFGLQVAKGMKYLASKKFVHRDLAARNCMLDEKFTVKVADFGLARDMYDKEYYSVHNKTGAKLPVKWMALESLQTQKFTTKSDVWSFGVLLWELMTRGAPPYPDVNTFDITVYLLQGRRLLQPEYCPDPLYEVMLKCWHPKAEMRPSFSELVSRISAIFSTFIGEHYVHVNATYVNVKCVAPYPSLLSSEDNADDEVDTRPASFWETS

[12] = biological target: T5, Serine/threonine-protein kinase Chk1 (Homo sapiens, UniProt O14757); assay type: functional;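 note: measured as one member of a kinome-wide kinase profiling panel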
T5 sequence (O14757 whole entry): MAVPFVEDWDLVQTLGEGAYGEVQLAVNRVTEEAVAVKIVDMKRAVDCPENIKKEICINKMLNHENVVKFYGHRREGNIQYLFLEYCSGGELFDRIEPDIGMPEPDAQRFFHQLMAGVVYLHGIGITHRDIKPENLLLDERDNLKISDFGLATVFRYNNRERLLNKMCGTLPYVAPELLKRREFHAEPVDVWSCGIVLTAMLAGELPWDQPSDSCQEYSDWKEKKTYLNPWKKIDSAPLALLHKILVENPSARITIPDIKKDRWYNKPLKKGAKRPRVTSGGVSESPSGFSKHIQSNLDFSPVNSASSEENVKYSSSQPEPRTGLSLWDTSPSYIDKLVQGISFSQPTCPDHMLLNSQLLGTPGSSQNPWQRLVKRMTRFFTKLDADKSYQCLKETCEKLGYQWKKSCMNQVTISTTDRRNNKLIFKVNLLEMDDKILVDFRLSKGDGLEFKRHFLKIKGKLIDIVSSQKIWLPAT

[13] = biological target: Dual specificity tyrosine-phosphorylation-regulated kinase 1B (Homo sapiens, UniProt Q9Y463); experiment: Navigating the Kinome. Panel member name: DYRK1B; assay type: functional
Sequence of Dual specificity tyrosine-phosphorylation-regulated kinase 1B (Q9Y463 whole entry): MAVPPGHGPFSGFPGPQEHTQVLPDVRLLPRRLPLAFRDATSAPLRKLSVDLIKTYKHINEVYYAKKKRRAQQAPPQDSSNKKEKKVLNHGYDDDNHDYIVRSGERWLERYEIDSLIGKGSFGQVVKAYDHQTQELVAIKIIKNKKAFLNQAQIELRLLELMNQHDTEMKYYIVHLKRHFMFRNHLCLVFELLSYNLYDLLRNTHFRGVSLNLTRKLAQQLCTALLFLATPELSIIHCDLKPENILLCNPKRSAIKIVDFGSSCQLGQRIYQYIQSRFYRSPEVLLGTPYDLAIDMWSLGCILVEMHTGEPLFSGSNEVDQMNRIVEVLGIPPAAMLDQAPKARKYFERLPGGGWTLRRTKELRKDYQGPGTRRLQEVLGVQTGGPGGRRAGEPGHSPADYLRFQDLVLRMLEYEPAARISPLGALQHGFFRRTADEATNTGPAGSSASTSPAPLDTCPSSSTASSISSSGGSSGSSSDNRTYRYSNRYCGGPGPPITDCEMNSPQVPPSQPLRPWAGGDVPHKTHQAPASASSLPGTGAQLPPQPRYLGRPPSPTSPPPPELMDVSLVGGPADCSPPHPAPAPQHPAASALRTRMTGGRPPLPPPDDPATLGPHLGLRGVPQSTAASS

[14] = biological target: Glycogen synthase kinase-3 beta (Homo sapiens, UniProt P49841); assay type: functional;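 note: value comes from a broad kinome profiling panel, with GSK3B as the panel member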
Sequence of Glycogen synthase kinase-3 beta (P49841 whole entry): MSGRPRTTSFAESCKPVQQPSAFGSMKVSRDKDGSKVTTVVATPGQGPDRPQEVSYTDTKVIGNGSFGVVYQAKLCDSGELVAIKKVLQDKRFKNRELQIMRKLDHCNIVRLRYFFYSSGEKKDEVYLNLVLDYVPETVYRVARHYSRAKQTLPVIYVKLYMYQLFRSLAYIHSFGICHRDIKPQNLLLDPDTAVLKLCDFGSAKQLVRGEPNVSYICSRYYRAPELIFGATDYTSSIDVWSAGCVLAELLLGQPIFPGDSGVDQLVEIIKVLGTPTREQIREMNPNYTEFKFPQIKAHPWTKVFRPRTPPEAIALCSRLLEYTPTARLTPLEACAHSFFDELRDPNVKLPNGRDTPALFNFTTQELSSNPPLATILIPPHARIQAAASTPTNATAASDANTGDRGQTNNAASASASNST

[15] = biological target: Dual specificity protein kinase CLK4 (Homo sapiens, UniProt Q9HAZ1); assay type: functional
[16] = biological target: Dual specificity tyrosine-phosphorylation-regulated kinase 1A (Homo sapiens, UniProt Q13627); assay type: functional;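 note: measured against DYRK1A as one member of a broad kinome profiling panel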
[17] = biological target: Induced myeloid leukemia cell differentiation protein Mcl-1 (Homo sapiens, UniProt Q07820); assay type: functional
Sequence of Induced myeloid leukemia cell differentiation protein Mcl-1 (Q07820 whole entry): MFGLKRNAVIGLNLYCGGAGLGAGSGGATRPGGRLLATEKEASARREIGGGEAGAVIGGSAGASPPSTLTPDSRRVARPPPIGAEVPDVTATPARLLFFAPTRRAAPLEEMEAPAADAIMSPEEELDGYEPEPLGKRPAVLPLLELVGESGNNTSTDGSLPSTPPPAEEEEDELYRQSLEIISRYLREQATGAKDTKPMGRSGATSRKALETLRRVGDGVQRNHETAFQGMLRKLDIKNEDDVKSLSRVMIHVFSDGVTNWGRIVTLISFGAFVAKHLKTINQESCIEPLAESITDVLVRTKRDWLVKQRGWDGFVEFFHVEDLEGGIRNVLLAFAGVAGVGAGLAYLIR

[18] = tested on: Vero; experiment: viability of Vero cells under compound – cytotoxicity control for flavivirus capping enzyme inhibitors (AID 588742); assay type: functional; conditions: Chlorocebus sabaeus
[19] = biological target: Genome polyprotein (dengue virus type 2, UniProt P29990); experiment: flavivirus cap methylation enzyme inhibition – biochemical, confirmation dose response, primary screen (AID 588689); assay type: functional
Sequence of Genome polyprotein (P29990 2492-3391 limits assumed): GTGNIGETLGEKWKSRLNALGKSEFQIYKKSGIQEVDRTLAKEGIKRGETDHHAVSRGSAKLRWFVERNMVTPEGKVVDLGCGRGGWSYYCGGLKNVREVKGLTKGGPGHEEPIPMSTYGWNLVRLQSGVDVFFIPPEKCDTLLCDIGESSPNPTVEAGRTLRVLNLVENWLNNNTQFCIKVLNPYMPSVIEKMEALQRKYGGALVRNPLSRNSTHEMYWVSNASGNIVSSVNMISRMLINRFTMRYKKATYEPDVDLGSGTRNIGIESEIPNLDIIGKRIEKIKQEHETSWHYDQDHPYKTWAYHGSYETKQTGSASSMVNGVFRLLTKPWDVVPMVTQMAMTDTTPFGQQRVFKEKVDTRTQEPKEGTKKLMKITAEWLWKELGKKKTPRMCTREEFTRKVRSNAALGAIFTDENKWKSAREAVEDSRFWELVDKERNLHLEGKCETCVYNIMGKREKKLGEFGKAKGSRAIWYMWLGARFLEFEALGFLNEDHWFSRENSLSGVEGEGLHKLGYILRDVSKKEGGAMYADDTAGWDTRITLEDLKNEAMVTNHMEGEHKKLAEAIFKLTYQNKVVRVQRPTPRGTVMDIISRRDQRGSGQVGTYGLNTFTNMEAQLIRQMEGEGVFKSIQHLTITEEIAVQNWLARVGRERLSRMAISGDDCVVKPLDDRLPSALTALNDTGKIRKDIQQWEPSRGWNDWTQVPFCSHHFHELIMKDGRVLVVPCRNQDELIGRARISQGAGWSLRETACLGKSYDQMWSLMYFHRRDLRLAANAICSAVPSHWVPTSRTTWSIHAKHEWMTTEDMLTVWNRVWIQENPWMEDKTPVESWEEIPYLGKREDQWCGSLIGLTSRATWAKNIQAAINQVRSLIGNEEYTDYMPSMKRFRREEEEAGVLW

For O=C(Nc1nc2ccc(Cl)cc2s1)c1nn(-c2ccccc2)ccc1=O, the IC50 [1] was > 99 µM (inactive), the IC50 [2] was > 99 µM (inactive) and the IC50 [3] was > 99 µM (inactive). The IC50 [4] was > 99 µM (inactive).

For COc1ccccc1NS(=O)(=O)c1cc([N+](=O)[O-])ccc1N/N=C/c1c[nH]c2ccccc12, the CC50 [5] was 41.7 µM (active), the EC50 [6] was 21.9 µM (active) and the EC50 [7] was 21.8 µM (active). For the same molecule, the IC50 [8] was 32 µM (inactive) and the IC50 [9] was 2.74 µM (active).

For COC(=O)c1csc2ccc(=O)[nH]c12, the Ki [10] was 15.8 µM (active), the Ki [11] was 79.4 µM (active) and the Ki [12] was 15.8 µM (active). For the same molecule, the Ki [13] was 63.1 µM (active), the Ki [14] was 79.4 µM (active) and the Ki [15] was 12.6 µM (active). For the same molecule, the Ki [16] was 25.1 µM (active).

For COc1ccccc1NC1=C(NC(C)=O)C(=O)c2ccccc2C1=O, the IC50 [17] was 2.28 µM (active), the CC50 [18] was > 40 µM (active) and the IC50 [19] was > 100 µM (active).
